Measurements: patent US8541607B2, “Disulfide, sulfide, sulfoxide, and sulfone derivatives of cyclic sugars and uses thereof” (Lacer, S.A., priority 2003, dated 2013)
Counter-ions that a name gives are not always drawn. Like-named read-outs stand apart in the source and are kept apart here. Blank lines part the entries; values can stand above or below the compound they belong to.

Tests used:
[1] = system: heart (AVP-induced coronary vasoconstriction); assay: In vivo protection against ischemia-reperfusion damage in the heart (arginine-vasopressin induced S-wave depression); conditions: p.o.; for S-wave decrement: 1 h before AVP 0.3 U/kg, vehicle 46.2 ± 4.9
Protocol: Experiments were performed according to the model previously described by Hirata Y at al (Journal of Cardiovascular Pharmacology, 1998, 31: 322-326)
After a food fasting period of 6 hours, animals were divided into groups of at least 8 animals each. Doses of products were given by oral sounding 1 h before the ischemia induction. Animals were anaesthetized with pentobarbital (40 mg/kg, i.p.) and the standard limb lead II electrocardiogram was recorded to detect the S-wave depression. 0.3 U/kg arginine-vasopressin (AVP) (Sigma Chemicals, St Louis, Mo., USA) was injected into the carotid artery to induce vasoconstriction of small coronary arteries and increase in coronary resistance. In all the groups received AVP 60 min after, the test drug. In all groups, after AVP injection of 10 minutes ECG recording was performed.
The results are shown in table 16 and are expressed as S-wave decrements (μvolts).

[2] = system: arterial rings; assay: Test of vasorelaxation on arterial rings contracted with phenylephrine; assay type: cell-based; conditions: read-out: EC50 (vasodilatation equal to 50% of the maximum tone)
Protocol: The method used in the assays is substantially the same as described in following references: • * Furchgot, R. F., “Methods in nitric oxide research”; Feelisch & Stamler, eds., John Wiley & Sons, Chichester, England, pp 567-581. • * Trongvanbichnam K., et al., Jpn. J. Pharmacol. 71 (1996); 167-173. • * Sales, E., at al., Eur. J. Pharmacol. 258 (1994); 47-55.
The different compounds are tested at 5 different concentrations, at a concentration range from 0.0001 to 10 mM, using from 6 to 9 arterial rings for each compound. The obtained results are compared to those from the isosorbide 5-mononitrate, which is used as reference product.
The results are shown in table 1 below and are provided as EC50 (effective concentration 50), which is the concentration of each of the tested, compounds yielding a vasodilatation equal to 50% of the maximum tone at which the artery ring has been contracted with 1 μM of Phenylephrine.

[3] = system: HUVEC cells; assay: In vitro protection against cytotoxicity induced by oxygen radicals (peroxynitrite), XTT method; assay type: cell-based, human; conditions: HUVEC pre-treated with 50 μM compound for one hour, then 800 μM peroxynitrite overnight
Excerpt: The method used is substantially the same as described by Caveda L., et al. (J. Clin. Invest. […]; 98: 886-893).
For the determination of the capacity to inhibit the cytotoxicity induced by oxygen radicals Human Umbilical Vein Endothelial Cells (HUVEC) were used. HUVEC were isolated and cultured in M199 and 20% FCS (Fetal Calf Serum).
Test XTT assay is based on […] by the metabolically active cells of the salt of tetrazolio XTT to form an orange product, the formazan dye formed is soluble and is directly quantified using an spectrophotometer.
HUVEC cells were cultivated until a sub-confluence status in a 96 well tissue culture plate and pre-treated with 50 μM of the compound for one hour. After that, cells were treated with 800 μM of peroxynitrite for an overnight.
After overnight incubation cells were incubated with the yellow XTT solution (final concentration 0.3 mg/ml) for 4 hours. After this incubation period, orange formazan solution was formed, which was spectrophotometrically quantified using an ELISA plate reader at 450 nm
The results are shown in table 15 and are expressed as percentage of death cells.

[4] = system: heparinized plasma (plasma lipoproteins); assay: Inhibition of plasma oxidation induced by Cu2+ (absorbance 234 nm); assay type: biochemical; conditions: compounds at 10 μM; 50 μM CuSO4; mean ± s.e.m.
Protocol: The method used in the assays to determine the effect of compounds on the capacity of oxidation of the plasma is substantially the same as described in Spranger T. et al., Chem Phys Lipids 1998; 91: 39-52.
Lipoprotein oxidation induced in vitro in plasma is expected to represent a relevant model of the lipoprotein oxidation in the arterial wall. Oxidation of plasma lipoproteins was assessed as the capacity of oxidation of heparinized plasma and was measured by spectrophotometry as in increase in absorbance at 234 nm. The compounds were added in vitro to determine their inhibitory activity over the capacity of oxidation of plasma induced by Cu^2+ (CuSO4). Heparinized plasma was diluted with phosphate-buffered saline solution (PBS) containing 0.16 M NaCl, and the oxidation was started by 50 μM CuSO4. Experimental samples were incubated at 37° C. and the increase in absorbance at 234 nm was automatically recorded every 15 min for at least 12 h. The effect of compounds over the capacity of oxidation of plasma induced by Cu^2+ was tested at 7 different concentrations using heparinizaded plasma from 7 different healthy donors.

[5] = system: platelets (Human Platelet Rich Plasma); assay: In vitro inhibition of ADP-induced platelet aggregation; assay type: cell-based; conditions: submaximal ADP (1-4 μM), mean ± s.d.
Protocol: The method used in the assays is substantially the same as described in following reference: • * Sales, E., at al., Br. J. Pharmacol. 112 (1994); 1071-1076.
The compounds are tested at four different concentrations, using platelet rich plasma from not less than 6 different healthy human donors. The results obtained are compared to those from 5-isosorbide mononitrate, which is used as reference product.
The results are shown in table 2 and are expressed as IC50 (inhibitory concentration 50), which is the concentration of each of the tested compounds yielding an inhibition equal to 50% of the aggregation obtained with a submaximal concentration (1-4 μM) of ADP (a submaximal concentration of ADP is the minimal amount of ADP which produces the maximal aggregation).

[6] = system: Rats, left carotid artery thrombosis (FeCl3); assay: In vivo antithrombotic effect, FeCl3 carotid artery thrombosis; set-up: species or system rat; conditions: single oral dose of 100 mg/Kg; no occlusion during 60 min after FeCl3 patch
Protocol: The method used is substantially the same as described by Kurz (Kurz K. D., et al., Thromb. Res. 1990, 60:269-280) and modified by Feuerstein (Feuerstein G. Z., et al., Artherioscler. Thromb. Vase. Biol. 1999, 19: 2554-25562).
Rats received a single oral dose of 100 mg/Kg of the compounds.
Forty-five minutes after dosing rats were anaesthetized with sodium pentobarbital (40 mg/kg, i.p.) and they were placed later dorsally on a heated (37° C.) surgical board.
The left carotid artery was isolated and a Parafilm 4 sheet (7×20 mm, American National Can) was placed under it. An electromagnetic sounding of flow (Transonic Systems Inc.) was placed on the artery to measure blood flow.
(§1) Sixty minutes after product administration, a paper patch saturated with FeCl3 solution (70%) was placed (and not removed for the whole duration of the experiment) on the left carotid artery downstream from the sounding of flow to initiate thrombosis. The blood flow was controlled during the 60 min later to the application of the patch in the artery.
The vessel was considered totally occluded by the thrombus formed when no blood flow was detected (0.0 ml/min). In this model, thrombus formation usually takes place within 15 to 20 minutes in non-treated animals.

[7] = system: Rats, left carotid artery thrombosis (FeCl3); assay: In vivo synergistic antithrombotic effect, FeCl3 carotid artery thrombosis, single drugs and combinations; set-up: species or system rat; conditions: for Rate of animals with thrombotic occlusion: control 1
Protocol: The method used is substantially the same as described by Kurz (Kurz K. D., at al., Thromb. Res. 1990, 60: 269-280) and modified by Feuerstein (Feuerstein G. Z., et al., Artherioscler, Thromb. Vasc. Biol. 1999, 19: 2554-25562). […]
Forty-five minutes after dosing administration, rats were anaesthetized with sodium pentobarbital (40 mg/kg, i.p.) and they were placed later dorsally on a heated (37° C.) surgical board.
The left carotid artery was isolated and a Parafilm M sheet (7×20 mm, American National Can) was placed under it. An electromagnetic sounding of flow (Transonic Systems Inc.) was placed on the artery to measure blood flow.
as §1
The vessel was considered totally occluded by the thrombus formed when no blood flow was detected (0.0 ml/min). In this model, occlusive thrombus formation usually takes place within 15 to 20 minutes in non-treated animals.
The fractional product concept was used to identify synergy between the compounds. In accordance with this concept, if we consider the full protection of the animal as:
[formula] where A is the rate of animals with thrombotic occlusion in treated group; and B is the rate of animals with thrombotic occlusion in the control group.
For two drugs that act of independent way:
[formula] where A1 is the rate of animals with thrombotic occlusion in the treatment group A1; A2 is the rate of animals with thrombotic occlusion in the treatment group A2; and B is the rate of animals with thrombotic occlusion in the control group
If the protection obtained with the combination of the drugs is higher than the fractional inhibition for two compounds acting independently then synergism is considered to occur.
The results are shown in table 14 and are expressed as rate of animals with thrombotic occlusion in each group.

[8] = system: LDL; assay: Inhibition of LDL oxidation induced by haemin and H2O2 (conjugated dienes, 234 nm); assay type: biochemical, human; conditions: compounds at 10 μM; 2.5 μM haemin and 5 μM H2O2; mean ± s.e.m.
Excerpt: The method used in the assays to determine the effect of the compounds on LDL oxidation is substantially the same as described in the following references: • Sprenger T., et al., Chem. Phys. Lipids 1998; 91:39-52 • Lynch S. M., et al., Biochim. Biophys. Acta 2000; 1485:11-22 • Pedreño J., et al., Thromb. Res. 2000; 99: 51-60.
The method used in the assays to isolate LDL particles from fresh human plasma is substantially the same as described in Pedreño J., et al., Atherosclerosis 2001; 155: 99-112.
Oxidative modification of low-density lipoprotein (LDL) is currently believed to be a central event it the development of atherosclerotic cardiovascular disease. The exposition of LDL to globin-free haemin (the complex of ferric ion (Fe^3+) with protoporphyrin IX), derived from the haemoglobin in circulating erythrocytes, serves as a physiological source of pro-oxidant Fe^3+ capable to promoting LDL oxidation. The compounds were added in vitro to determine their inhibitory activity on LDL oxidation induced by haemin and H2O2. LDL at a final protein concentration of 0.2 mg/ml was incubated in the presence of 2.5 μM haemin and 5 μM H202. Oxidative modification of LDL particles was assessed by measurement of conjugated dienes. Experimental samples were incubated at 37° C. and the increase in absorbance at 234 nm was automatically recorded every 5 min for at least 5 h. The effect of compounds on the LDL oxidation induced by haemin was tested at 7 different concentrations using LDL preparations from 7 different healthy donors.

[9] = artery ring contracted with 1 μM Phenylephrine, mean ± s.d.
[10] = Acetyl salicylic acid 100 mg/Kg/day, oral, for 3 days
[11] = Clopidogrel 1.5 mg/Kg/day, oral for 3 days

EC50 [2, 9]: 24 ± 5 µM
Compound: 2-thioisosorbide [(9)]
Protection of S-wave decrement ([1]; 20 mg/kg): 64% | S-wave decrement ([1]; 20 mg/kg): 16.5 ± 9.8 μV | Protection of S-wave decrement ([1]; 100 mg/kg): 79% | S-wave decrement ([1]; 100 mg/kg): 9.7 ± 4.6 μV

melting point: 115 °C
Compound: C[S@@+]([O-])[C@H]1CO[C@H]2[C@@H]1OC[C@H]2O[N+](=O)[O-] (as salt: nitrate) [(4), 2-[(R)-methylsulfinyl]isosorbide 5-mononitrate]

Compound: O=[N+]([O-])O[C@@H]1CO[C@H]2[C@@H]1OC[C@@H]2SS[C@H]1CO[C@H]2[C@@H]1OC[C@H]2O[N+](=O)[O-] [(2), 5,5′-dinitrato-2,2′-dithiodiisosorbide]
% of death cells [3]: 80% | EC50 [2]: 5.3 ± 1 µM | % of increment of lag phase with respect to control (plasma oxidation) [4]: 7 ± 1% | IC50 [5]: 10 ± 7 µM

EC50 [2, 9]: 43 ± 6 µM | IC50 [5]: 410 ± 90 µM
Compound: CS[C@H]1CO[C@H]2[C@@H]1OC[C@H]2O[N+](=O)[O-] [(3), 2-methylthioisosorbide 5-mononitrate]
% of animals fully protected [6]: 100% | % of death cells [3]: 80%

EC50 [2, 9]: 338 ± 10 µM | IC50 [5]: 1000 ± 10 µM
Compound: C[S@@+]([O-])[C@H]1CO[C@H]2[C@@H]1OC[C@H]2O[N+](=O)[O-] [(4), 2-[(R)-methylsulfinyl]isosorbide 5-mononitrate]
% of animals fully protected [6]: 80% | Protection of S-wave decrement ([1]; 20 mg/kg): 21% | S-wave decrement ([1]; 20 mg/kg): 36.5 ± 11.6 μV | Protection of S-wave decrement ([1]; 100 mg/kg): 87% | S-wave decrement ([1]; 100 mg/kg): 5.9 ± 3.9 μV

IC50 [5]: 850 ± 150 µM
Compound: C[S@+]([O-])[C@H]1CO[C@H]2[C@@H]1OC[C@H]2O[N+](=O)[O-] [(4bis), 2-[(S)-methylsulfinyl]isosorbide 5-mononitrate]

EC50 [2, 9]: 1.2 ± 0.1 µM | IC50 [5]: 1.9 ± 0.5 µM
Compound: O=NS[C@H]1CO[C@H]2[C@@H]1OC[C@H]2O[N+](=O)[O-] [(6), S-nitroso-2-thioisosorbide 5-mononitrate]

EC50 [2, 9]: 50 ± 9 µM | IC50 [5]: 580 ± 21 µM
Compound: O=[N+]([O-])O[C@@H]1CO[C@H]2[C@@H]1OC[C@@H]2SC1CCCCO1 (stereo partly shown) [(7), 2-(tetrahydropyran-2-yl-thio)isosorbide 5-mononitrate]

Compound: CC(=O)Oc1ccccc1C(=O)O [Acetyl salicylic acid]
% of animals protected [7, 10]: (50%) | Rate of animals with thrombotic occlusion [7, 10]: 0.50

Compound: COC(=O)[C@H](c1ccccc1Cl)N1CCc2sccc2C1 [Clopidogrel]
% of animals protected [7, 11]: (50%) | Rate of animals with thrombotic occlusion [7, 11]: 0.50

Compound: O=[N+]([O-])O[C@@H]1CO[C@H]2[C@@H]1OC[C@@H]2O [Isosorbide 5-mononitrate, reference compound]
EC50 [2, 9]: 920 ± 200 µM | % of increment of lag phase with respect to control (plasma oxidation) [4]: 0% | % of increment of lag phase with respect to control (LDL oxidation) [8]: 0% | IC50 [5]: 2680 ± 330 µM
